From US12180207B2 (ARRAY BIOPHARMA INC., priority 2018, dated 2024)

Key:
[1] = target: recombinant human FGFR2 cytoplasmic domain (amino acids 403-822) (Homo sapiens (Human), UniProt P21802); assay: FGFR2 enzyme activity assay (LanthaScreen TR-FRET); type: biochemical; conditions: 15 μM ATP, 20 min incubation at 22° C., average of multiple determinations if made, read-out: FGFR2 Enz FRET IC50
Method: FGFR2 kinase activity was measured by the Invitrogen LanthaScreen™ Assay technology which directly measures the amount of substrate phosphorylation by TR-FRET using a fluorescently-labeled peptide and Europium-labeled antibody. Briefly, […] His-tagged recombinant human FGFR2 cytoplasmic domain (amino acids 403-822) (Life Technologies Cat. No. PR5332A) was incubated with 100 nM Alexa Fluor® 647-Poly-GT Peptide Substrate (Life Technologies Cat. No. PV5836) and 15 μM ATP along with test compound in a buffer consisting of 250 mM HEPES, 25 mM MgCl2, 0.05% TritonX-100, pH 7.5, and 2% DMSO. […] After a 20 minute incubation at 22° C., an equal volume of 2 nM LanthaScreen® Eu-PY20 Antibody (Life Technologies Cat. No. PV5691) and 10 mM EDTA were added to quench the kinase reaction and start the detection reaction. After an additional 60 minute incubation at 22° C., the reaction was measured using a PerkinElmer EnVision multimode plate reader via TR-FRET dual wavelength detection, and the percent of control (POC) calculated using a ratiometric emission factor. 100 POC was determined using no test compounds and 0 POC was determined using no enzyme. The POC values were fit to a 4-parameter logistic curve as a function of the concentration of the compound, and the IC50 value is the point where the curve crosses 50 POC.

[2] = target: phosphorylated FGFR3 (SEQ ID NO: 5, amino acids 449 to 759) (Homo sapiens (Human), UniProt P22607); assay: FGFR enzyme binding assay (HTRF tracer displacement), FGFR3; conditions: 5 nM phosphorylated FGFR3, average of multiple determinations if made
phosphorylated FGFR3 (SEQ ID NO: 5, amino acids 449 to 759), sequence (P22607 449-759): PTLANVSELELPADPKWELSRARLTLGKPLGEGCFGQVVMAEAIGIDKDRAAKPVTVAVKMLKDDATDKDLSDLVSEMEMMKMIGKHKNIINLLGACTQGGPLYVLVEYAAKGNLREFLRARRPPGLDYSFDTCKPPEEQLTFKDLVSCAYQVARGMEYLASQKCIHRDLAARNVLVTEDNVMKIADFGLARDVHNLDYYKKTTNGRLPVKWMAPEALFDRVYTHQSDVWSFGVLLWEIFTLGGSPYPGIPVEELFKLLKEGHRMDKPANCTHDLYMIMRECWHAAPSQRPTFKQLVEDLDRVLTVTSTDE
Method: (§1) The potency of compounds inhibiting human isoforms of FGFR kinase was determined using Life Technologies' Homogeneous Time Resolved Fluorescence (HTRF)-based binding assay technology. […] After a 60 minute incubation at 22° C., the extent of tracer displacement was determined using a PerkinElmer EnVision multimode plate reader via HTRF dual wavelength detection, and the percent of control (POC) was calculated using a ratiometric emission factor. One hundred POC was determined using no test compound, and 0 POC was determined in the presence of 1 μM of an appropriate control inhibitor.

[3] = target: dephosphorylated FGFR1 (SEQ ID NO: 1, amino acids 458 to 765) (Homo sapiens (Human), UniProt P11362); assay: FGFR enzyme binding assay (HTRF tracer displacement), FGFR1; conditions: 5 nM dephosphorylated FGFR1, average of multiple determinations if made
dephosphorylated FGFR1 (SEQ ID NO: 1, amino acids 458 to 765), sequence (P11362 458-765): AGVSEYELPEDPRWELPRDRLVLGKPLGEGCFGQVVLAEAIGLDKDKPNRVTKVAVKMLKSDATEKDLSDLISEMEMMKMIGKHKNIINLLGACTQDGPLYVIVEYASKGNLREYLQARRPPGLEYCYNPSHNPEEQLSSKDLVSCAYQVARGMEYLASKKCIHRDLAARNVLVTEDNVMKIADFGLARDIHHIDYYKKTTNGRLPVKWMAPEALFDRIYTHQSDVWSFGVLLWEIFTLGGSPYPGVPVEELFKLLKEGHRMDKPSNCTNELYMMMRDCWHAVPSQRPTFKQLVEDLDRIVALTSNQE
Method: as §1

[4] = target: FGFR3 (SEQ ID NO: 5, amino acids 449-759) (Homo sapiens (Human), UniProt P22607); assay: LC/MS FGFR3 kobs assay (covalent protein modification); type: binding; conditions: 500 nM FGFR3, 3 μM compound
FGFR3 (SEQ ID NO: 5, amino acids 449-759), sequence (P22607 449-759): as the sequence (P22607 449-759) above
Method: The LC/MS FGFR1 and FGFR3 kobs assays were conducted as follows. […] At each time point, the reaction was quenched with 20 μL of 0.4% formic acid. The extent of protein modification by each compound was determined by LC/MS on an Agilent Technologies 6520 Q-TOF LC/MS. Protein signals were then automatically deconvoluted using Agilent Masshunter software. Deconvoluted mass signals were exported to Tibco Spotfire data analysis program for further processing and normalization.
Data analysis included five steps. First, the signals for the “DMSO Controls” were analyzed to determine the percent of signal associated with unmodified FGFR1 or FGFR3 at each time point. Next, the percent of the signal associated with the covalent modification was determined. Third, the average nonmodified “DMSO Control” signal was used to normalize the modified protein signals at each time point. The percent of unmodified protein was fit to an exponential decay model where A0 is the Percent Unmodified at the start of the reaction, and kobs is the observed rate constant over the time period.
Table EC contains kobs values for compounds tested in these assays, presented as the average of multiple determinations if multiple determinations were made. ND=not determined.

[5] = target: recombinant human FGFR3 (amino acids R397-T806) (Homo sapiens (Human), UniProt P22607); assay: FGFR3 enzyme activity assay (LanthaScreen TR-FRET); type: biochemical; conditions: 25 μM ATP, 10 min incubation at 22° C., average of multiple determinations if made, read-out: FGFR3 Enz FRET IC50
recombinant human FGFR3 (amino acids R397-T806), sequence (P22607 397-806): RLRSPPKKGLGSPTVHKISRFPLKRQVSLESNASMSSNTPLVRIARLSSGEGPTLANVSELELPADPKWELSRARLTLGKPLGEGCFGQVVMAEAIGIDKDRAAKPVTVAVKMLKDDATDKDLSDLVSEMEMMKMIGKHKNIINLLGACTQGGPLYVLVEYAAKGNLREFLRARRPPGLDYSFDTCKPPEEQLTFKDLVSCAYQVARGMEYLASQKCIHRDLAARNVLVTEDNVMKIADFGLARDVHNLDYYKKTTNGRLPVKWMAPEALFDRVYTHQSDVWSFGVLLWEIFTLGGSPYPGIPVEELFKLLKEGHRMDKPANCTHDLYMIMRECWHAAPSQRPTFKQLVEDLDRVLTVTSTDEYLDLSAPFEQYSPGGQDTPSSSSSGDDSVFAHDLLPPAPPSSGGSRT
Method: FGFR3 kinase activity was measured by the Invitrogen LanthaScreen™ Assay technology which directly measures the amount of substrate phosphorylation by TR-FRET using a fluorescently-labeled peptide and Europium-labeled antibody. Briefly, […] N-terminal GST-HIS6 fusion protein with a 3C cleavage site recombinant human FGFR3 (amino acids R397-T806) (ProQinase Cat. No. 1068-0000-1) was incubated with 100 nM Alexa Fluor® 647-Poly-GT Peptide Substrate (Life Technologies Cat. No. PV5836) and 25 μM ATP along with test compound in a buffer consisting of 250 mM HEPES, 25 mM MgCl2, 0.05% TritonX-100, pH 7.5, and 2% DMSO. […] After a 10 minute incubation at 22° C., an equal volume of 2 nM LanthaScreen® Eu-PY20 Antibody (Life Technologies Cat. No. PV5691) and 10 mM EDTA were added to quench the kinase reaction and start the detection reaction. After an additional 60 minute incubation at 22° C., the reaction was measured using a PerkinElmer EnVision multimode plate reader via TR-FRET dual wavelength detection, and the percent of control (POC) calculated using a ratiometric emission factor. 100 POC was determined using no test compounds and 0 POC was determined using no enzyme. The POC values were fit to a 4-parameter logistic curve as a function of the concentration of the compound, and the IC50 value is the point where the curve crosses 50 POC.

[6] = target: recombinant human FGFR1 catalytic domain (amino acids 308-731) (Homo sapiens (Human), UniProt P11362); assay: FGFR1 enzyme activity assay (LanthaScreen TR-FRET); type: biochemical; conditions: 20 min incubation at 22° C., average of multiple determinations if made, read-out: FGFR1 Enz FRET IC50
recombinant human FGFR1 catalytic domain (amino acids 308-731), sequence (P11362 other isoform, or with tags, fused parts or gaps): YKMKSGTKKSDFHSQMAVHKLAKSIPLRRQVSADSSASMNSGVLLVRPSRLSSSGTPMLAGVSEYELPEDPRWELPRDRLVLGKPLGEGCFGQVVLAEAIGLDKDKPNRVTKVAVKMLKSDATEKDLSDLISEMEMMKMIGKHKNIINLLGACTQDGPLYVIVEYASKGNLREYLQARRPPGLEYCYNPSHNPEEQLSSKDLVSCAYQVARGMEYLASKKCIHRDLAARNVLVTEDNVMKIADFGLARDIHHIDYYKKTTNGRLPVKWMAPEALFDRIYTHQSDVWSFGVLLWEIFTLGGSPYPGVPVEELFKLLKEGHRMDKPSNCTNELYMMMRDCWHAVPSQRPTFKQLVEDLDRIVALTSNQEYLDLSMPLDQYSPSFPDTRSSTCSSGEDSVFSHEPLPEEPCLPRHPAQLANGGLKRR
Method: FGFR1 kinase activity was measured by the Invitrogen LanthaScreen™ Assay technology which directly measures the amount of substrate phosphorylation by Time-resolved fluorescence energy transfer (TR-FRET) using a fluorescently-labeled peptide and Europium-labeled antibody. Briefly, […] His-tagged recombinant human FGFR1 catalytic domain (amino acids 308-731) (Life Technologies Cat. No. PR4660A) was incubated with 100 nM Alexa Fluor® 647-Poly-GT Peptide Substrate (Life Technologies Cat. No. PV5836) and […] ATP along with test compound in a buffer consisting of 250 mM HEPES, 25 mM MgCl2, 0.05% TritonX-100, pH 7.5, and 2% DMSO. […] After a 20 minutes incubation at 22° C., an equal volume of 2 nM LanthaScreen® Eu-PY20 Antibody (Life Technologies Cat. No. PV5691) and 10 mM EDTA was added to quench the kinase reaction and start the detection reaction. After an additional 60 minute incubation at 22° C., the reaction was measured using a PerkinElmer EnVision multimode plate reader via TR-FRET dual wavelength detection, and the percent of control (POC) calculated using a ratiometric emission factor. 100 POC was determined using no test compounds and 0 POC was determined using no enzyme. The POC values were fit to a 4-parameter logistic curve as a function of the concentration of the compound, and the IC50 value is the point where the curve crosses 50 POC.

recombinant human FGFR2 cytoplasmic domain (amino acids 403-822), sequence (P21802 402-821): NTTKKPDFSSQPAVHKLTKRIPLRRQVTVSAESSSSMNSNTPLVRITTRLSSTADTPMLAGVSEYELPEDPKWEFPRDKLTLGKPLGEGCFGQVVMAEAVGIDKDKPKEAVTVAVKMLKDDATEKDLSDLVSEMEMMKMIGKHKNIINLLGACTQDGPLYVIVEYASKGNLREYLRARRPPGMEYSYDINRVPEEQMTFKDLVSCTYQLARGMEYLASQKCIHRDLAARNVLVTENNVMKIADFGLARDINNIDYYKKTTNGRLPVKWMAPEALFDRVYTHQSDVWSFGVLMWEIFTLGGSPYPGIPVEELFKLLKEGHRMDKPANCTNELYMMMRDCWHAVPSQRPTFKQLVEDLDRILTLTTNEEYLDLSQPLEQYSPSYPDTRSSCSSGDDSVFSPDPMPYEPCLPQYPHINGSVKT

| SMILES | IC50 [1] [µM] | IC50 [2] [µM] | IC50 [3] [µM] | FGFR3 Enz kobs [4] [min⁻¹] | IC50 [5] [µM] | IC50 [6] [µM] |
| --- | --- | --- | --- | --- | --- | --- |
| C=CC(=O)N[C@H]1CC[C@H](C(=O)N2CCC(n3cc(-c4cc(OC)c5c(C#N)cnn5c4)cn3)CC2)CC1 [Example 18, N-((1r,4r)-4-(4-(4-(3-cyano-4-methoxypyrazolo[1,5-a]pyridin-6-yl)-1H-pyrazol-1-yl)piperidine-1-carbonyl)cyclohexyl)acryl-amide] | 0.004 | 0.026 | 0.131 | 0.0004 | 0.002 | 0.018 |
| C=CC(=O)N[C@H]1CC[C@@H](C(=O)N2CCC(n3cc(-c4cc(OC)c5c(C#N)cnn5c4)cn3)CC2)CC1 [Example 20, N-((1s,4s)-4-(4-(4-(3-cyano-4-methoxypyrazolo[1,5-a]pyridin-6-yl)-1H-pyrazol-1-yl)piperidine-1-carbonyl)cyclohexyl)acryl-amide] | 0.003 | 0.018 | 0.093 | 0.00051 | 0.003 | 0.014 |
| C=CC(=O)N1CCC(Oc2cccc(-n3cc(-c4cc(OC)c5c(C#N)cnn5c4)cn3)c2)CC1 [Example 26, 6-(1-(3-((1-acryloylpiperidin-4-yl)oxy)phenyl)-1H-pyrazol-4-yl)-4-methoxypyrazolo[1,5-a]pyridine-3-carbonitrile] | 0.042 | 0.128 | 0.552 | 0.0007 | 0.058 | 0.188 |
| C=CC(=O)N[C@H]1C[C@@H](C(=O)N2CCC(n3cc(-c4cc(OC)c5c(C#N)cnn5c4)cn3)CC2)C1 [Example 44, N-((1s,3s)-3-(4-(4-(3-cyano-4-methoxypyrazolo[1,5-a]pyridin-6-yl)-1H-pyrazol-1-yl)piperidine-1-carbonyl)cyclobutyl)acryl-amide] | 0.003 | 0.02 | – | 0.001 | 0.002 | – |
| C=CC(=O)N[C@H]1C[C@H](C(=O)N2CCC(n3cc(-c4cc(OC)c5c(C#N)cnn5c4)cn3)CC2)C1 [Example 45, N-((1r,3r)-3-(4-(4-(3-cyano-4-methoxypyrazolo[1,5-a]pyridin-6-yl)-1H-pyrazol-1-yl)piperidine-1-carbonyl)cyclobutyl)acryl-amide] | 0.009 | 0.044 | – | 0.00116 | 0.008 | – |
| C=CC(=O)NC1C2CC1C2C(=O)N1CCC(n2cc(-c3cc(OC)c4c(C#N)cnn4c3)cn2)CC1 (stereo not shown) [Example 46, N-(4-(4-(4-(3-cyano-4-methoxypyrazolo[1,5-a]pyridin-6-yl)-1H-pyrazol-1-yl)piperidine-1-carbonyl)bicyclo[1.1.1]pentan-2-yl)acrylamide] | 0.002 | 0.004 | 0.023 | 0.00153 | 0.003 | 0.012 |
| C=CC(=O)N1CCC(C(=O)N2CC[C@@H](n3cc(-c4cc(OC)c5c(C#N)cnn5c4)cn3)C2)CC1 [Example 53, (R)-6-(1-(1-(1-acryloylpiperidine-4-carbonyl)pyrrolidin-3-yl)-1H-pyrazol-4-yl)-4-methoxypyrazolo[1,5-a]pyridine-3-carbonitrile] | 0.007 | 0.031 | – | 0.00112 | 0.003 | – |
| C=CC(=O)N[C@H]1CC[C@H](C(=O)N2CC[C@@H](n3cc(-c4cc(OC)c5c(C#N)cnn5c4)cn3)C2)CC1 [Example 54, N-((1R,4r)-4-((R)-3-(4-(3-cyano-4-methoxypyrazolo[1,5-a]pyridin-6-yl)-1H-pyrazol-1-yl)pyrrolidine-1-carbonyl)cyclohexyl)acryl-amide] | 0.016 | 0.025 | 0.142 | 0.00025 | 0.016 | 0.047 |
| C=CC(=O)N[C@H]1C[C@H](C(=O)N2CC[C@@H](n3cc(-c4cc(OC)c5c(C#N)cnn5c4)cn3)C2)C1 [Example 60, N-((1R,3r)-3-((R)-3-(4-(3-cyano-4-methoxypyrazolo[1,5-a]pyridin-6-yl)-1H-pyrazol-1-yl)pyrrolidine-1-carbonyl)cyclobutyl)acryl-amide] | 0.007 | 0.032 | 0.203 | 0.00083 | 0.007 | 0.031 |
| C=CC(=O)N[C@H]1C[C@@H](C(=O)N2CC[C@@H](n3cc(-c4cc(OC)c5c(C#N)cnn5c4)cn3)C2)C1 [Example 61, N-((1S,3s)-3-((R)-3-(4-(3-cyano-4-methoxypyrazolo[1,5-a]pyridin-6-yl)-1H-pyrazol-1-yl)pyrrolidine-1-carbonyl)cyclobutyl)acryl-amide] | 0.006 | 0.061 | 0.346 | 0.00064 | 0.005 | 0.028 |
| C=CC(=O)N1CCC(C(=O)N2CC[C@H](n3cc(-c4cc(OC)c5c(C#N)cnn5c4)cn3)C2)CC1 [Example 62, (S)-6-(1-(1-(1-acryloylpiperidine-4-carbonyl)pyrrolidin-3-yl)-1H-pyrazol-4-yl)-4-methoxypyrazolo[1,5-a]pyridine-3-carbonitrile] | 0.005 | 0.064 | – | 0.00106 | 0.002 | – |
